What was measured:
[1] = oral supplementation, patient groups; cited from earlier work
[2] = in vivo; cited from earlier work
[3] = cited from earlier work
[4] = Case study Example 3: person with schizophrenia; settings: for relief of symptoms (anxiety, obsessive compulsive behavior, psychosis): schizophrenic, formulation given while remaining on clozapine and lithium
Source text: Person diagnosed with schizophrenia. Hospitalized several times suffering from acute psychotic attack with hallucinations and paranoia. Treated with many typical and atypical antipsychotic drugs. […] Over the years, several diagnoses were given, including bipolar disorder, obsessive-compulsive disorder, affective disorder, and combinations thereof. Medications have included lithium, olanzapine, prozac, and several sleep medications. […] Patient went through years of treatment programs and weekly psychiatric sessions. Although they managed (with extreme difficulty) to obtain BA and MA degrees, paranoia and anxiety prevented them from working. Recent history. Patient has been on an atypical antipsychotic (clozapine) and high doses of lithium carbonate for the past 2 years. […] Patient started on Metabolic Enhancement Therapy with the disclosed formulation, while remaining on clozapine and lithium.

[5] = test system: bacteria, protozoa or viruses; settings: cited from earlier work
[6] = test system: yeasts and yeast-like fungi; settings: cited from earlier work
[7] = oral; cited from earlier work
[8] = Case study Example 2: person with moderately functioning autism; assay type: in vivo, human; settings: autistic person; for alleviation of behavioral symptoms: complete formulation
Source text: Person diagnosed with moderately functioning autism. Subject's behaviors were noteworthy for acute social withdrawal, pronounced language deficit, obsessive compulsive behaviors, acute anxiety attacks, aggression, hyperactivity, loss of concentration, fear and panic disorder, hyperactivity, depression, sleep deficit and acoustic hypersensitivity. Subject experienced loss of appetite and was underweight, although growth and sexual development was not stunted. […]

[9] = Case study Example 4: person with acute anxiety disorder and depression; settings: 2 years of treatment
NMDA glycine site = settings: in vivo; cited from earlier work

vitamin B12
effect on depression in clinical trials [1]: responsive to B12 supplementation

O=C([O-])c1cc(=O)[nH]c(=O)[nH]1.[Li+] [lithium orotate]
increase of delivery of lithium to brain by complexing with orotate [2]: over 100 fold

NCC(=O)O [glycine]
effect on depression in clinical trials [1]: useful in the treatment of certain forms of bipolar depression

vitamin E
dose without reported toxicity ([3]; in vivo): up to 800 mg/day

Cc1ncc(C[n+]2csc(CCO)c2C)c(N)n1 [Vitamin B1, Thiamine]
tolerability / toxicity in words ([3]; in vivo): toxicities are very rare

CC(=O)O[C@H](CC(=O)[O-])C[N+](C)(C)C [acetyl-L-carnitine]
effect on depression in clinical trials [1]: effective in relieving depression

O=C(O)c1cccnc1 [Niacin]
effects at pharmacologic doses ([3]; 2-4 g/day): vasodilation (flushing reaction), a marked decrease in circulation fatty acids, cholesterol and lipoproteins, and an elevation of serum glucose and uric acid | dose without reported toxicity ([3]; in vivo): up to 50 mg/day

C[S+](CC[C@H](N)C(=O)O)C[C@H]1O[C@@H](n2cnc3c(N)ncnc32)[C@H](O)[C@@H]1O (some centres unmarked) [S-adenosyl methionine (SAMe), S-adenosyl methionine]
effect on depression in clinical trials [1]: effective treatment for depression

Cc1ncc(CO)c(CO)c1O [vitamin B6, pyridoxine]
effect on depression in clinical trials [1]: helps alleviate depression associated with premenstrual syndrome | dose reported to induce peripheral neuropathy ([3]; in vivo): exceed 2,000 mg/day

O=C([O-])[O-].[Li+].[Li+] [lithium carbonate]
relief of symptoms (anxiety, obsessive compulsive behavior, psychosis) [4]: Obsessive-compulsive behavior progressively deteriorated

N[C@@H](Cc1c[nH]c2ccc(O)cc12)C(=O)O [5-hydroxytryptophan]
effect on depression in clinical trials [1]: only minor signs of efficacy

C[C@@H]1[C@H](O)[C@@H](C)/C=C/C=C/CC/C=C/C=C/C=C/C=C/C(O[C@H]2O[C@H](C)[C@@H](O)[C@H](N)[C@@H]2O)CC2O[C@](O)(CC(O)C(O)CCC(O)CC(O)CC(O)CC(=O)O[C@H]1C)CC(O)C2C(=O)O (some centres unmarked) [Nystatin]
activity against bacteria, protozoa or viruses [5]: no activity | tolerability / toxicity in words ([3]; in vivo): generally well tolerated by all age groups | antifungal activity [6]: both fungistatic and fungicidal | gastrointestinal absorption [7]: insignificant | control of chronic intestinal yeast infections [8]: effectively controlled yeast infections

secretin
alleviation of behavioral symptoms [8]: proved totally ineffective

[Li] [lithium]
side effects induced by medication ([4]; prior medications): induce tremors, rigidity, weight gain and diabetes

CNCCC(Oc1ccc(C(F)(F)F)cc1)c1ccccc1 (centres unmarked) [Prozac]
side effects induced by medication ([4]; in vivo): induce tremors, rigidity, weight gain and diabetes | relief of symptoms (anxiety, obsessive compulsive behavior, psychosis) [4]: None provided relief of symptoms | side effects [9]: negative side effects

amoxtatine
alleviation of behavioral symptoms [8]: proved totally ineffective

Cc1cc2c(s1)Nc1ccccc1N=C2N1CCN(C)CC1 [olanzapine]
side effects induced by medication ([4]; in vivo): induce tremors, rigidity, weight gain and diabetes

N[C@@H]1CONC1=O [D-cycloserine]
extinction of conditioned fear (NMDA glycine site): augment the extinction of conditioned fear

From US20090104171A1, “Metabolic Enhancement Therapy” (priority 2007, published 2009)
